# Reference: patent US20230189790A1, “NON-FREEZING REFRIGERATED STORAGE LIQUID FOR STEM CELLS” (BIOVERDE INC., priority 2019, published 2023)
# Assays:
# [1] = system: human iPS cell line (253G1); experiment: Non-freezing refrigerated storage in single cell state at 4° C., survival rate by trypan blue; type: cell-based; conditions: for effect of antioxidant/radical scavenger on ST80 (ranking): added to HTM1 at various concentrations; for 80% survival-rate maintenance days (ST80): single cell state, 4° C.
# Source text: A healthy human-derived human iPS cell line (253G1) obtained from the Center for iPS Cell Research and Application, Kyoto University was maintained and cultured under feeder-free conditions. For this culture, StemFit (registered trademark) AK02N (Ajinomoto), which is a commercially available medium for clinical research for human ES/iPS cells was used. When the cells reached 70-80% confluence on the 7th day after the start of the culture, the cells were enzymatically stripped off from a container by using 0.5X TrypLE® Select, and then dispersed and washed. Subsequently, the cells were suspended in a new StemFit® AK02N medium containing 10 µM Y27362 (Fujifilm Wako Pure Chemical Industries, Ltd.) as a ROCK inhibitor, and added with iMatrix-511 (MATRIXOME, Inc.) as a further cell culture substrate at 0.1 µg/cm^2. Then, the cells were seeded at a concentration of 1.3E3/cm^2 (1.3 ×10^3/cm^2). The day after the seeding, the medium was replaced with StemFit® AK02N medium containing no Y27362, then the medium was replaced every 3 days and subcultured or tested on day 7.
# The human iPS cells obtained in “1.” above are added into the refrigerated storage liquids HTM1 and HTM2 in “2.” above to be suspended at 1E6 cells/mL (number of floating cells 1x10^6 cells/mL) in a cell state. Then, the suspensions were placed into a plastic tube and allowed to stand at 4° C. for storage. The survival rate was determined by counting the number of living cells after staining with trypan blue.
# The statistical processing in the examples of the present application was performed as follows. The survival rate maintenance curves in FIGS. 1A and 2B were obtained by using “R ver 3.5.1” to fit the four-variable logistic curve. The 1way ANOVA and Bonferoni and Dunnetts tests were calculated using “Graphpad Prism 5.04”.
# Antioxidants or radical scavengers were added to HTM1 at various concentrations and subjected to the non-freezing refrigerated storage test as described in “3.” above. The added antioxidants or radical scavengers are shown in FIG. 5A and are: Trolox (Trx, Wako), EGCG (Teavigo®, DSM), N-acetylcysteine (NAC, Tokyo Kasei), L-ascorbic acid (AA, WAKO)), and edaravone (3-Methyl-1-phenyl-2-pyrazoline-5-one, Sigma).
# human iPS cells [2] = experiment: Refrigerated storage in adhesive state (1): proliferation on recultivation for 4 days; type: cell-based
# Protocol: Human iPS cells obtained in the same manner as in “1.” above were used. However, at the final stage of culturing, the cells were seeded at a slightly lower concentration (1.0E3/cm^2) than the maintenance culture of “1.” above, and the day after this seeding, culture medium was replaced by StemFit® A[…] medium containing no Y27362. Then, the medium was removed 4 days after the seeding. Subsequently, the medium was replaced with HTM1 which is for the non-freezing refrigerated storage, and the medium with the cells was left to stand for 3 or 6 days under 4° C. In other words, in a state the cells were aggregated and adhered to each other, the cells were stored in non-freezing refrigerated condition for 3 days or 6 days. Trolox was added to HTM1, which is the medium for refrigerated storage. […] A UW solution (BELZER UW (registered trademark) COLD STORAGE LIQUID) was also used as the refrigerated storage medium of the comparative example. The cells after the non-freezing refrigerated storage were lightly washed with culture medium after the refrigerated storage medium were removed. Then, StemFit® A[…] medium was added and culturing was made for 4 days. At the end of this culturing, cells were enzymatically detached (by using 0.5X TrypLE® Select), and dispersed so that number of viable cells are counted. Then, it was compared with the number of cells at the start of refrigerated storage. In addition, after taking a phase difference image at the end and start of the culturing, image processing was performed with ImageJ to extract and binarize the colony area, and the colony area was measured to evaluate the proliferative ability. The above experiment was aimed at developing a refrigerated storage method in a state iPS cells were adhered, and proliferative ability (colony forming ability) subsequent to culturing for 4 days after the non-freezing refrigerated storage for 3 or 6 days. FIGS. 7A-7B show images of colonies obtained by the […] for 4 days after 3 days of the refrigerated storage, and FIGS. 7C-7D show images of colonies obtained by recultivation for 4 days after he refrigerated storage for 6 days. Here, FIGS. 7A and 7C are phase differentiation images, and binarized images of these are shown in FIGS. 7B and 7D, respectively. […] Further, in the bar graphs of FIGS. 7F and 8, the rate of increase in the number of colonies when recultivated for 4 days after the refrigerated storage for 3 days and 6 days. In the graph, the rate for a control, which is for cell not subjected to the refrigerated storage, is taken as “1” or 100%.
# [3] = system: mouse blastocyst stage embryos; experiment: Refrigerated storage of mouse embryos: escape from the zona pellucida; type: cell-based, mouse (ICR); conditions: 14 µM to 140 µM; low temperature storage for 5 days and 7 days
# Protocol: On the other hand, in order to try non-freezing refrigerated storage of mouse embryos (FIGS. 10 to 11), in vitro fertilization was performed by ova and sperms from female and male mice (both ICR), and then embryos were cultured for 3.5 days (84 hours). Here, HTF (Fuji Film Wako Pure Chemical Industries, Ltd.) was used as the medium for insemination, and KSOM (Arc Resource) was used for culturing.
# As described above, a blastocyst stage embryo 3.5 days after in vitro fertilization was immediately used as it was, and a refrigerated storage experiment was conducted. Specifically, for this blastocyst stage embryo, the medium was replaced with the HTM-alpha, HTM1, and HTS FRS as used in the above “11.” and the UW solution, in respective experiments. […] Both of HTM-alpha and HTM1 here are obtained by adding 5 mM Trolox and 5-fold concentration (x5; 10 mM) GlutaMAX (registered trademark) in the same manner as in “11.” above.
# Next, the effect of adding adenine hydrochloride (Tokyo Kasei) was investigated in the same manner as in FIGS. 7E to 7F. That is, under the same conditions as in the experiment of FIG. 10, the rate of embryos that escaped the zona pellucida when Adenine hydrochloride (Tokyo Kasei) was added at each concentration was determined.
# human iPS cells [4] = experiment: Relative survival rate after 6 days of refrigerated storage and 1 day of recovery culturing; type: cell-based; conditions: for effectiveness in refrigerated storage (relative survival rate): 0.04 mM to 5.0 mM added to HTM-alpha without trolox and GlutaMAX, compared with trolox 2.0 mM
# Protocol: The HTM-alpha (UW solution + MEM-alpha, 2: 1) described in “2.” above, which has not been added with trolox and GlutaMAX (registered trademark, GIBCO), is used in FIGS. 6A and 2A. The effect of the addition of tocopherol (vitamin E) and tocopherol acetate (vitamin E derivative) in the non-freezing refrigerated storage was investigated by the same procedure as in case of trolox addition in the above. Tocopherol and tocopherol acetate were added so as to become 0.04 mM to 5.0 mM in the same manner as the trolox addition, and refrigerated storage was performed. At this time, a sample to which trolox at 2.0 mM, which is a water-soluble vitamin E analog, was added was also tested at the same time. FIG. 6D summarizes the relative survival rates after 6 days of the storage and 1 day of recovery cultivation.
# Here, the effect of adding polyvinyl alcohol (PVA) instead of hydroxyethyl starch (HES) was investigated. Here, the composition of the UW solution shown in Table 1 above, excluding hydroxyethyl starch (HES), was adopted. Thus, the other components are same with those in the HTM-alpha (UW solution + MEM-alpha, 2: 1) while polyvinyl alcohol (PVA) in the range of 0.25% to 2.5% (weight) were added in the storage liquids used here. The cell viability was evaluated in the same manner as in the case of FIG. 6D above. That is, the protective effect of polyvinyl alcohol (PVA) was examined by the same procedure as in FIGS. 6A and 2A. At this time, a sample having a hydroxyethyl starch (HES) concentration of 5% (weight) was also tested at the same time. FIG. 12A summarizes the relative survival rates after 6 days of the refrigerated storage and 1 day of recovery culturing. […] It should be noted that polyvinyl alcohol (PVA) is cheaper than hydroxyethyl starch (HES), and is considered to be safer for living tissues.
# Next, in the same manner as in “13.” above, mannitol was added together with polyvinyl alcohol (PVA), and the synergistic effect was verified. […]
# human iPS cells [5] = experiment: Colony forming ability (relative colony efficiency) after refrigerated storage for 6 days and culturing for 5 days; type: cell-based; conditions: 6 days storage, 5 days culturing
# Protocol: The cell proliferation ability after non-freezing refrigerated storage was verified as follows. First, the human iPS cells obtained in the above “1.” were placed into the refrigerated storage liquid HTM1 of the above “2.” and stored in the non-freezing refrigerated state for 6 days as in the above “3.”. The cells were then suspended in StemFit® AK02N medium containing 10 µM Y27362, into which iMatrix-511 was added by 0.1 µg/cm^2. and seeded at a concentration of 1.3E3/cm^2. On 5th day of culturing, the cells were stained with fixed alkaline phosphatase, and then the number of colonies formed to a certain size or larger was measured using a colony counter. The number of colonies when cultured for 5 days without being subjected to the refrigerated storage was similarly measured and used as a control. Then, the number of colonies obtained by culturing for 5 days after the refrigerated storage was divided by the number of colonies in this control to obtain colony forming ability (Relative colony efficiency).
# Next, in order to verify the proliferative ability after refrigerated storage and recultivation, cells having been stored in the refrigerated state for 6 days were seeded in the same manner as in “4.” above, and the colony forming ability on the 5th day of culturing was compared. […] This obtained value was almost the same as that of the customary conventional slow-cooling cryoprerservation method placing the cell suspension in a freezer at -80° C.
# [6] = additive 5 mM in HTM1, listed as trolox
compound,measurement,setting,value
O=C(O[C@@H]1Cc2c(O)cc(O)cc2O[C@@H]1c1cc(O)c(O)c(O)c1)c1cc(O)c(O)c(O)c1 [EGCG],effect of antioxidant/radical scavenger on ST80 (ranking),[1],third highest effect
"Cl.Nc1ncnc2nc[nH]c12 [Adenine, adenine hydrochloride]",proliferation rate at recultivation,"human iPS cells [2]; 2.8 mM and 4.2 mM in HTM1 with Trolox 5 mM, storage 6 days",significantly increased
same,growth rate at recultivation,"human iPS cells [2]; 8.2 mM in HTM1 with Trolox 5 mM, storage 6 days",decreased the growth rate
same,zona pellucida escape rate,[3],relatively high zona pellucida escape rate
CC(=O)Oc1c(C)c(C)c2c(c1C)CCC(C)(CCC[C@H](C)CCC[C@H](C)CCCC(C)C)O2 (stereo partly drawn) [tocopherol acetate],effectiveness in refrigerated storage (relative survival rate),human iPS cells [4],less effective in refrigerated storage than trolox
"CC1=NN(c2ccccc2)C(=O)C1 [Edaravone, 3-Methyl-1-phenyl-2-pyrazoline-5-one]",effect of antioxidant/radical scavenger on ST80 (ranking),[1],second highest effect
OC[C@@H](O)[C@@H](O)[C@H](O)[C@H](O)CO [mannitol],viability of the cells after refrigerated storage,"human iPS cells [4]; 30 mM to 90 mM together with 0.5% PVA in HTM-alpha without HES, compared with 5% HES",higher
Cc1c(C)c2c(c(C)c1O)CCC(C)(C(=O)O)O2 (stereo not drawn) [Trolox],ST80 compared with HTM1 with no trolox added,[1]; 0.5 mM or more added to HTM1,significantly higher
same,"ST80, dependence on addition concentration","[1]; added to HTM1, concentration varied",increase approximately with increasing trolox concentrations
same,effect of antioxidant/radical scavenger on ST80 (ranking),[1],most effective
same,survival rate maintenance days (ST80) as multiple of HTM1 alone,[1]; additive 5 mM in HTM1,about 4 times
same,survival rate maintenance days (ST80) as multiple of UW solution,[1]; additive 5 mM in HTM1,9.5 times
same,survival rate maintenance days (ST80) as multiple of HTM1 alone,[1]; [6],4.4 times
same,80% survival-rate maintenance days (ST80),[1]; additive 5 mM in HTM1,≥ 20 days
same,80% survival-rate maintenance days (ST80),[1]; [6],20.11 days
same,colony forming ability as multiple of HTM1 alone,human iPS cells [5]; 5.0 mM added to HTM1,about twice
same,colony forming ability relative to control not subjected to refrigerated storage,human iPS cells [5]; 5.0 mM added to HTM1,41.2%
same,colony forming ability as multiple of HTM1 alone,"human iPS cells [5]; 5.0 mM added to HTM1, listed as trolox",2.3 times
same,"colony forming ability, dependence on concentration",human iPS cells [5]; added to HTM1,increased depending on the concentration of trolox
same,cell proliferation rate at recultivation compared with control not refrigerated,"human iPS cells [2]; 5 mM added into HTM1, storage 3 days",almost the same value as that in the control
same,cell proliferation rate at recultivation relative to control not refrigerated,"human iPS cells [2]; 5 mM added into HTM1, storage 6 days",about 10%
CC(=O)N[C@@H](CS)C(=O)O [N-acetylcysteine],effect of antioxidant/radical scavenger on ST80 (ranking),[1],third highest effect
tocopherol,effectiveness in refrigerated storage (relative survival rate),human iPS cells [4],less effective in refrigerated storage than trolox
"O=C1O[C@H]([C@@H](O)CO)C(O)=C1O [L-Ascorbic Acid, L-ascorbic acid]",effect of antioxidant/radical scavenger on ST80 (ranking),[1],did not show much effect
